Results as given in patent US9029386B2, “Pyridine derivatives useful as kinase inhibitors” (YM Biosciences Australia Pty Ltd, priority 2006, dated 2015).
pIC50: −log10 of the molar value.

Tests used:
PTK5(h) = molecular target: T1, PTK5(h) (Homo sapiens, UniProt P42685); test: KinaseProfiler assay (Upstate), PTK5; format: biochemical
T1 construct: purchased Upstate Biotechnology (Dundee, UK), KinaseProfiler service
Protocol: (§1) Further enzyme assays were conducted at Upstate Biotechnology (Dundee, UK) in the KinaseProfiler™ Assay system.
(§2) The general protocol is as follows. All kinases are pre-diluted to a 10× working concentration prior to addition into the assay. The composition of the dilution buffer for the kinases is 20 mM MOPS pH 7.0, 1 mM EDTA, 0.1% β-mercaptoethanol, 0.01% Brij-35, 5% glycerol, 1 mg/ml BSA. All substrates are dissolved and diluted to working stocks in de-ionised water.

Flt4(h) = molecular target: T2, Flt4(h) (Homo sapiens, UniProt P35916); test: KinaseProfiler assay (Upstate), Flt4; format: biochemical
T2 construct: purchased Upstate Biotechnology (Dundee, UK), KinaseProfiler service
T2 sequence (P35916 25-1363): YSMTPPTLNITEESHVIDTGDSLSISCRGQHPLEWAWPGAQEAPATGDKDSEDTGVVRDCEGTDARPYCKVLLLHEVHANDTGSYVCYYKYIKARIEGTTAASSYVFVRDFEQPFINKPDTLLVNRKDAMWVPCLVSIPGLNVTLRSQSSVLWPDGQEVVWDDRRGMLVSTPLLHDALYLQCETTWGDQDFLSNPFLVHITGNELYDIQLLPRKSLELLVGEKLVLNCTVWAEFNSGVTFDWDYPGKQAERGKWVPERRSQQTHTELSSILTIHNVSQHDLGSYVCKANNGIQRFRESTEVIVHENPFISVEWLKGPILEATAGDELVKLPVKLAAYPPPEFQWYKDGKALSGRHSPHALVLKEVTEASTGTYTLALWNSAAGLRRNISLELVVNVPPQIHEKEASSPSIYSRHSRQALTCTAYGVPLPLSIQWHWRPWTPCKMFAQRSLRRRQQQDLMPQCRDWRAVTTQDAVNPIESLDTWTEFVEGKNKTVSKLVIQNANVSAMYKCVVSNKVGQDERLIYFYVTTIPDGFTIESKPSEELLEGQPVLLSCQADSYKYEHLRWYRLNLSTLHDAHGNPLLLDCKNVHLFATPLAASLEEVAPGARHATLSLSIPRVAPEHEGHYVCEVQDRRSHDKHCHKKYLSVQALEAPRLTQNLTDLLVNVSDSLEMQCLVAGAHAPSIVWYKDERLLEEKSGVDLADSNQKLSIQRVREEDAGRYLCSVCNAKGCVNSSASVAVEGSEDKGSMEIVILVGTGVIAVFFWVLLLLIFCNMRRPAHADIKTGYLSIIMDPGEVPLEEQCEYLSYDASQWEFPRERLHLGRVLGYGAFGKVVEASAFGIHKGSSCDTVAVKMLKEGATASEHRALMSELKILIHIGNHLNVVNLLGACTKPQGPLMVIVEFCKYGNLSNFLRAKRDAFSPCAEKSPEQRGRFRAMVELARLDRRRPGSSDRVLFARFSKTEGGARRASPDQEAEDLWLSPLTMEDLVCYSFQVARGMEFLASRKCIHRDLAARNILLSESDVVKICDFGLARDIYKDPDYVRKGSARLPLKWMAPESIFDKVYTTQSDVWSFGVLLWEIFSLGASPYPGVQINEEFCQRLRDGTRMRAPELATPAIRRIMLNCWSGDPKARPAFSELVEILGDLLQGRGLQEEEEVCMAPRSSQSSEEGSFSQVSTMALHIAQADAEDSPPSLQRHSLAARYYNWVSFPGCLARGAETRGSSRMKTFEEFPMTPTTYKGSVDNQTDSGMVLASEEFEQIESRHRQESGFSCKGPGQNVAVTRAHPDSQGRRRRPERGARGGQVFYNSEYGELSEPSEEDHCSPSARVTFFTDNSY
Protocol: as §1, §2

EphA3(h) = molecular target: T3, EphA3(h) (Homo sapiens, UniProt P29320); test: KinaseProfiler assay (Upstate), EphA3; format: biochemical
T3 construct: purchased Upstate Biotechnology (Dundee, UK), KinaseProfiler service
T3 sequence (P29320 21-983): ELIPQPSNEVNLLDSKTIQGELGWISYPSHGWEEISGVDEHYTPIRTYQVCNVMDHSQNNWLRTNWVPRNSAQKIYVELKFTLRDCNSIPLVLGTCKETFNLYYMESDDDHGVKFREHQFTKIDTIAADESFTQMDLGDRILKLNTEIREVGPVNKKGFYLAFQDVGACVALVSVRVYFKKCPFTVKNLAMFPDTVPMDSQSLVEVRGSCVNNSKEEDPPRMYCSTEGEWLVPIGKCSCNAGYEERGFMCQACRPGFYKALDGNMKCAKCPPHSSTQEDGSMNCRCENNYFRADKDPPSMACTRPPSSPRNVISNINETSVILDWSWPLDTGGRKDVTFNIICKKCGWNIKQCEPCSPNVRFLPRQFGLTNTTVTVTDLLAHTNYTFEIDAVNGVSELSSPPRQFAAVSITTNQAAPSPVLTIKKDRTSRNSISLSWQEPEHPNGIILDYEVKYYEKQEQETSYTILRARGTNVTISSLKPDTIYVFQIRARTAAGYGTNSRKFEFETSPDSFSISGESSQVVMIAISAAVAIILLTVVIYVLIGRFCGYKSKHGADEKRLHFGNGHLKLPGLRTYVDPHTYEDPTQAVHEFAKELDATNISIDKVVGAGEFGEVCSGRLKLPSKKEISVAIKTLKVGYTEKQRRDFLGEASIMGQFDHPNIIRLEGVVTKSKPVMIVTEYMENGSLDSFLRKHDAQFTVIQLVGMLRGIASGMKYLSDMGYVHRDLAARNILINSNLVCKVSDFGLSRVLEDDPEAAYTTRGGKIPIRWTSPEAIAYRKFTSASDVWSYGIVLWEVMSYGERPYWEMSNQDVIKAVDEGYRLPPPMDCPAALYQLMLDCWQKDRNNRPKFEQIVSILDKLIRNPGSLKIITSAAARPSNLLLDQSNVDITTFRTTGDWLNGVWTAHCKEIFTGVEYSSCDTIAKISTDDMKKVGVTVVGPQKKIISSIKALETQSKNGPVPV
Protocol: as §1, §2
In a final reaction volume of 25 EphA3 (h) (5-10 mU) is incubated with 8 mM MOPS pH 7.0, 0.2 mM EDTA, 0.1 mg/ml poly(Glu, Tyr) 4:1, 10 mM MgAcetate and [γ-33P-ATP] (specific activity approx. 500 cpm/pmol, concentration as required). The reaction is initiated by the addition of the MgATP mix. After incubation for 40 minutes at room temperature, the reaction is stopped by the addition of 5 μl of a 3% phosphoric acid solution. 10 μl of the reaction is then spotted onto a Filtermat A and washed three times for 5 minutes in 75 mM phosphoric acid and once in methanol prior to drying and scintillation counting.

Baf3-WT = test: Cellular assay (Alamar Blue), Baf3-WT with mouse IL-3; format: cell-based; conditions: mouse IL-3 at 5 ng/ml, 72 hr
Protocol: Cells for the assays were prepared by harvesting cells from culture, and then diluting them in the appropriate growth medium to between 40,000 cell/mL and 600,000 cell/mL, depending on the cell line.
The compounds to be tested were added (104, 10× final concentration) to a flat bottomed 96-well plate. The cellular suspension (80 μL per well) was added, and one hour later the growth factor was added (human M-CSF at 20 ng/ml for mNFS-60, mouse IL-3 at 5 ng/ml for Baf3-WT). The plate was then incubated for 72 hr at 37° C., 5% CO2. Alamar Blue (10^4 per well) was added and the plates returned to the incubator for a further 4-8 hours.
The plates were then read using a fluorescence plate reader at excitation 544 nm and emission 590 nm.

FLT-3 tyrosine kinase = molecular target: T4, FLT-3 tyrosine kinase (Homo sapiens, UniProt P36888); test: Alphascreen protein tyrosine kinase assay, FLT-3; format: biochemical; conditions: read-out: Flt3
T4 construct: purchased Upstate Cell Signalling Solutions, CA, USA 14-500
T4 sequence (P36888 27-993): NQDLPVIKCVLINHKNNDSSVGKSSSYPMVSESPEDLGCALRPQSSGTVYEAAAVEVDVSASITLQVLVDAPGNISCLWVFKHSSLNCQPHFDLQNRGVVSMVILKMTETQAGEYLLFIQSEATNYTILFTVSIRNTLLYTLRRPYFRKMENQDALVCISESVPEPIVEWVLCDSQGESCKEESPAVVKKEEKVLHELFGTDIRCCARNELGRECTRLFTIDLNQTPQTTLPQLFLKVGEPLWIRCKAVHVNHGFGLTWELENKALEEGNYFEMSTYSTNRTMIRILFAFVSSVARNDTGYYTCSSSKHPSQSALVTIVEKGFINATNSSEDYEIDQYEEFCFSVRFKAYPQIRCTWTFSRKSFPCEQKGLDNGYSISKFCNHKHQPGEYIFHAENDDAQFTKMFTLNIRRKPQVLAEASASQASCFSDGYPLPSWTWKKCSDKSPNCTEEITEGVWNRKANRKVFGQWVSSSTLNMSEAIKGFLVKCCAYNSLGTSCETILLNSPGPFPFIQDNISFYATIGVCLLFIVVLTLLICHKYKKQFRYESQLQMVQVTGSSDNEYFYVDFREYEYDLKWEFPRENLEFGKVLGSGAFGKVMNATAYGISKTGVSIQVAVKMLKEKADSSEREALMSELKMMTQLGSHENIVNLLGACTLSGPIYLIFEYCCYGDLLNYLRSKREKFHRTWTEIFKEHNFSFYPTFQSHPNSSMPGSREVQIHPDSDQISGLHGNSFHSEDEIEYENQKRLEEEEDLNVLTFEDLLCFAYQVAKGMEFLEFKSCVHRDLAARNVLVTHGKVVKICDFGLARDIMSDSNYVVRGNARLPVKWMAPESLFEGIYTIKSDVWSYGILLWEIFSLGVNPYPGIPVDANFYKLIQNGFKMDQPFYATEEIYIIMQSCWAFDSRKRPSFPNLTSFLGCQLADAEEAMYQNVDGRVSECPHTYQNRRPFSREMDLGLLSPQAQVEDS

T1 sequence (P42685 whole entry): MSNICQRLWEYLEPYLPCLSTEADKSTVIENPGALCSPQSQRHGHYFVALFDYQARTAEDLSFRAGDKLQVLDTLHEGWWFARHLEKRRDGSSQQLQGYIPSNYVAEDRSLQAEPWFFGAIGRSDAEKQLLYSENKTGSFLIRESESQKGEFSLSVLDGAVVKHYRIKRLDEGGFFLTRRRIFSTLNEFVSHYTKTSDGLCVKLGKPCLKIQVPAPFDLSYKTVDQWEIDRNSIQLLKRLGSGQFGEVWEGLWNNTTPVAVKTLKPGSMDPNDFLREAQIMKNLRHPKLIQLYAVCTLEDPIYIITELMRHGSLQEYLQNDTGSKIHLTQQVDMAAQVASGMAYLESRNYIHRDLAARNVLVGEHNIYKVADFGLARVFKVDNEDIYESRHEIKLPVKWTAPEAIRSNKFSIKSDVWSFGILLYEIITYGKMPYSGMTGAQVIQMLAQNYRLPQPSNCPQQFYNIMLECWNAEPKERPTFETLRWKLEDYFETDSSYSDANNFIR

SMILES	inhibition at 0.1 µM (PTK5(h))	inhibition at 1 µM (PTK5(h))	inhibition at 0.1 µM (Flt4(h))	inhibition at 1 µM (Flt4(h))	inhibition at 0.1 µM (EphA3(h))	inhibition at 1 µM (EphA3(h))	pIC50 (Baf3-WT)	pIC50 (FLT-3 tyrosine kinase)
Cc1cccc(C(=O)Nc2cccc([C@H](C)Nc3cncc(-c4ccc(S(N)(=O)=O)cc4)n3)c2)c1 [Compound 77]	91%	99%	98%	97%	17%	70%	< 5.00	< 5.00
C[C@H](Nc1cncc(Cl)n1)c1cccc(NC(=O)c2cccc(C(F)(F)F)c2)c1 [Compound 114, (S)—N-(3-(1-(6-chloropyrazin-2-ylamino)ethyl)phenyl)-3-(trifluoromethyl)benzamide]	98%	100%	92%	99%	24%	92%	< 5.00	
Cc1cccc(C(=O)Nc2cccc([C@H](C)Nc3cncc(C(N)=O)n3)c2)c1 [Compound 133, (S)-6-(1-(3-(3-methylbenzamido)phenyl)ethylamino)pyrazine-2-carboxamide]	80%	98%	95%	100%	-4%	34%	< 5.00	
Cc1cccc(C(=O)Nc2cccc([C@H](C)Nc3cncc(-c4cccc(N5CCOCC5)c4)n3)c2)c1 [Compound 147]	94%	100%	100%	99%	44%	91%	< 5.00	
C[C@H](Nc1cncc(-c2cccc(N3CCOCC3)c2)n1)c1cccc(NC(=O)c2cccc(C(F)(F)F)c2)c1 [Compound 149]	95%	100%	96%	99%	46%	94%	< 5.00	
Cc1cccc(C(=O)Nc2ccc(C)c([C@H](C)Nc3cncc(Cl)n3)c2)c1 [Compound 168]	100%	100%	96%	97%	69%	98%		

Results, then the molecule that gave them:

inhibition at 0.1 µM (PTK5(h))	inhibition at 1 µM (PTK5(h))	inhibition at 0.1 µM (Flt4(h))	inhibition at 1 µM (Flt4(h))	inhibition at 0.1 µM (EphA3(h))	inhibition at 1 µM (EphA3(h))	pIC50 (Baf3-WT)	pIC50 (FLT-3 tyrosine kinase)	SMILES
99%	100%	100%	100%	18%	76%	> 5.00		Cc1cccc(C(=O)Nc2cccc([C@H](C)Nc3cncc(-c4ccc(N5CCN(C)CC5)cc4)n3)c2)c1 [Compound 129]
88%	96%	95%	99%	0%	58%	> 5.00		Cc1cccc(C(=O)Nc2cccc([C@H](C)Nc3cncc(-n4ccnc4)n3)c2)c1 [Compound 143, (S)—N-(3-(1-(6-(1H-imidazol-1-yl)pyrazin-2-ylamino)ethyl)phenyl)-3-methylbenzamide]
99%	100%	96%	99%	79%	99%	> 5.00		C[C@H](Nc1cncc(-c2ccc(N3CCN(C)CC3)cc2)n1)c1cccc(NC(=O)c2cccc(C(F)(F)F)c2)c1 [Compound 148]
